Key:
[1] = test system: KYSE-150 (human esophageal squamous carcinoma cells); type: cell-based; conditions: 72 h
Text: (§1) A part of the compounds of the examples of the present disclosure were subjected to a tumor cell proliferation inhibition test by using an MTT method (e.g. Pharmacological Research Method of New Drug, 2007: 242-243, edited by Lu Qiujun).
(§2) A cell strain was selected from KYSE-150 (human esophageal squamous carcinoma cells), MGC803 (human gastric carcinoma cells), and SHG44 (human glioma cells), and frozen and passaged by a pharmacological laboratory of Shanghai Institute of Pharmaceutical Industry. A culture solution was DMEM+10% FBS+double antibody.
(§3) In-vitro activity test: 100 μL of a cell suspension at a concentration of 4-5×10^4/mL was added to each well of a 96-well plate, and placed in a 5% CO2 incubator at 37° C. After 24 h, a sample solution was added at 10 μL/well, double duplicate wells were set, and a reaction was performed at 37° C. with 5% CO2 for 72 h. 20 μL of 5 mg/ml of an MTT solution was added into each well and reacted for 4 h, a dissolving solution was added at 100 μL/well, the mixture was placed in an incubator, and after dissolution, an OD value at 570 nm was measured with a full-wavelength multifunctional microplate reader. An inhibition rate (IR) and a median inhibitory concentration (IC50) were calculated by using an Excel software.
(§4) The inhibition rate (IR %) of the drug on cell growth was calculated according to the following equation: […]

[2] = test system: SHG44 (human glioma cells); type: cell-based; conditions: 72 h
Text: as §1, §2, §3, §4

COc1cc(C(=O)NCCOCCOCCOCCOCCC(=O)N[C@@H](C(=O)N[C@@H](CCCNC(N)=O)C(=O)Nc2ccc(COC(=O)N3CCN(C(=O)O[C@H]4CC[C@@]5(C)[C@H](CC[C@@H]6[C@@H]5[C@H](O)C(=O)[C@]5(C)[C@@H](c7ccc(=O)oc7)CC[C@]65O)C4)CC3)cc2)C(C)C)ccc1NC(=O)[C@@H]1N[C@@H](CC(C)(C)C)[C@](C#N)(c2ccc(Cl)cc2F)[C@H]1c1cccc(Cl)c1F [Compound I-1]
IC50 [1]: 40 nM
IC50 [2]: 3 nM

From patent publication US20240024494A1, “SMALL-MOLECULE CONJUGATE AND USE THEREOF” (SHANGHAI MEWSGEN BIOTECHNOLOGY CO., LTD, priority 2020, published 2024)
